According to patent US5455240A, “Modulators of pneumococcal adhesion to cellular targets involving the platelet activating factor receptor, and uses thereof” (The Rockefeller University, priority 1994, dated 1995):

Assays:
[1] = system: type II lung epithelial cells (LC); assay: Pneumococcal adherence to human type II lung epithelial cell monolayers, resting or IL-1α-stimulated; assay type: cell-based; details: for pneumococcal adherence to resting LC in presence of antagonist: 1 μM antagonist, without antagonist 270 ±10; for Number of pneumococci adherent to designated receptor on host cell: 2 mM sugar, adherence per 100 host cells without sugar minus with sugar
Protocol: (§1) FIG. 1. Adherence of pneumococci to cytokine-stimulated human cultured type II pneumocytes (A) and vascular endothelial cells (B). Monolayers in 60 well Terasaki dishes were stimulated with IL-1α (type II lung cells; 5 ng/ml, 4 h at 37° C.; Rozdzinski et al., 1993, J. Exp. Med. 178: 917) and TNFα (vascular endothelial cells; 10 ng/ml, 3 h at 37° C.; Elias et al., 1990, Am. J. Respir. Cell. Mol. Biol. 3: 13). Pneumococci R6 and AII were cultured for 18 h on trypticase soy agar containing 3% sheep blood, labelled with fluorescein isothiocyanate and adjusted to 10^5 -10^7 cfu/ml (Geelen et al., 1993, Infect. Immun. 61: 1538), and co-incubated with the monolayers. Control adherence in the absence of cytokine is indicated by a hatched line (-----). Bacteria adherent to cytokine-stimulated (.cndot.) and resting (.smallcircle.) monolayers were determined as the number of attached bacteria per 100 lung or endothelial cells. Results are the means ±SD for duplicate wells in at least six independent experiments.
(§2) FIG. 2. Effect of PAF receptor antagonists on pn[…] to IL-1α-stimulated cultured human type II lung cells (A) and TNFα-stimulated vascular endothelial cells (B). Cytokine stimulated monolayers were incubated (10 min, 37° C.) with either albumin buffer (--) or increasing concentrations of the PAF receptor antagonists L659,989 ( ) and WEB 2086 ( ) and R6 pneumococci (10^7 cfu/ml) allowed to adhere to the monolayers for 30 min at 37° C. Control adherence in the absence of cytokine stimulation is indicated by a horizontal dotted line (------). Adherent bacteria were determined as the number of attached bacteria per 100 lung or endothelial cells. Results are the means ±SD for duplicate wells in at least six independent experiments. *p<0.05 compared with cytokine-stimulation in the absence of antagonists.
(§3) The adherence of S. pneumoniae encapsulated strain AII (serotype 2) and the isogeneic unencapsulated strain R6 to human vein endothelial cells (EC) and type II lung epithelial cells (LC) was quantitated before and after stimulation of the eukaryotic cells with IL-1 or TNF. Adherence to EC was increased […] by TNFα stimulation (FIG. 1). […] (increase from 240 ±10 to 363 ±13 bacteria/100 EC; increase from 270 ±15 to 355 ±18 bacteria/100 LC). Adherence was not affected by the presence of a type II capsule. At an input concentration of 10^7 cfu/ml, adherence of AII and R6 to 100 TNFα-stimulated EC was 405 ±14 and 400 ±10, respectively.
(§4) The contribution of carbohydrate recognition to pn[…] to cytokine-stimulated EC and LC was tested using competition assays performed in the presence of monosaccharides (1-50 mM) or glycoconjugates (0.003-2 mM) the role of carbohydrate recognition in pn[…] is disclosed more fully in copending application Ser. No. 08/254,577, Attorney Docket No. 600-1-084, filed Jun. 6, 1994 by Tuomanen and Cundell, entitled "MODULATORS OF PN[…] TO PULMONARY AND VASCULAR CELLS AND DIAGNOSTIC AND THERAPEUTIC APPLICATIONS"; hereinafter Tuomanen and Cundell. Bacteria were pre-incubated for 15 min at room temperature with final concentrations of the sugars as stated, centrifuged (3,000 rpm, 3 min) to remove unbound sugar, resuspended to 1×10^7 cfu/ml in albumin buffer and added to the adherence assay. […] Adherence of bacteria lacking choline to activated cells in the presence and absence of GlcNAc was 121 ±11 and 119 ±5/100 EC and 137 ±7 and 135 ±13/100 LC, respectively.

PAF receptor [2] = molecular target: T1, PAF receptor (Homo sapiens, UniProt P25105); assay: Activation of PAF receptor-transfected COS-7 cells, 3H incorporation in inositoltriphosphate (IP3); assay type: cell-based; design: IP3 (3H-inositol) response
T1 sequence (P25105 whole entry): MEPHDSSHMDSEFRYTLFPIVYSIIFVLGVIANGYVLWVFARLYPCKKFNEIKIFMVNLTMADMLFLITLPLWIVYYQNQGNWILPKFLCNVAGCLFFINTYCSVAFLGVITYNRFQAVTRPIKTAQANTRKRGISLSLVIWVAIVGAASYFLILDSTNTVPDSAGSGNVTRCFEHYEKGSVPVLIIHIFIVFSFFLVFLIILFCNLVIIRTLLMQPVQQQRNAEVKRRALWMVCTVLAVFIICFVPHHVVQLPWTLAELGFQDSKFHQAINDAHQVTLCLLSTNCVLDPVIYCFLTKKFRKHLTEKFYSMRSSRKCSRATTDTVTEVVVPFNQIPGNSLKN
Protocol: FIG. 6. Pneumococci activate the PAF receptor. COS cells in a monolayer were treated with control, platelet activating factor ([…]), pneumococci (10^8 bacteria/ml), ethanolamine-cultured pneumococci (10^8 bacteria/ml), PAF+L659,989, and pneumococci+L659,989. Activation was measured by detecting the level of incorporation of ^3 H in inositoltriphosphate, which is reported as the percentage above background .
Activation of COS-7 cells transfected with the PAF receptor was assayed. The cells were exposed to medium (control), platelet activating factor ([…]), pneumococci (10^8 bacteria/ml), and ethanolamine cultured pneumococci (10^8 bacteria/ml). Inhibition of activation by PAF and pneumococci with the PAF receptor antagonist L659,989 (2 μg/ml) was also measured. Cellular activation was measured by detecting incorporation of ^3 H in inositoltriphosphate (IP3).

[3] = system: type II lung cells and vascular endothelial cells; assay: Pneumococcal adherence to EC and LC, results stated for both cell types together; assay type: cell-based, human; details: for IC50: Homo sapiens, Endothelial cell, 0.5 h, activated cells (IL-1α-stimulated LC, TNFα-stimulated EC), R6 10^7 cfu/ml, 30 min, 37° C., read-out: ED50 of inhibition of pneumococcal adherence; for inhibition of adherence to resting cells by single sugars: resting EC and LC
Protocol: as §2
FIG. 4. Effect of simple sugars on adherence of R6 to resting and cytokine-stimulated human cultured type II pneumocytes (A) and vascular endothelial cells (B). R6 (10^7 cfu/ml) was exposed to various simple sugars (15 min, room temperature) and then co-incubated with either resting (.quadrature.) or cytokine-stimulated ( ) monolayers for 30 min. Pn[…] to a designated sugar was defined as bacterial adherence to 100 host cells in the absence of sugar-bacterial adherence to 100 host cells in the presence of sugar. Results are the means ±SD for duplicate wells in at least six independent experiments. Glc=D-glucose, Gal=D-galactose, Fuc=L-fucose, GalNAc=N-acetyl-D-galactosamine, GlcNAc=N-acetyl-D-glucosamine, Man=D-mannose, NANA=sialic acid, Lac=lactose and 2-ADGG=2-acetamido-2-deoxy-3-O-B-D-galactopyranosyl-D-galactopyranose.
as §4

PAF receptor [4] = molecular target: T1, PAF receptor; design: IP3 (3H-inositol) response; details: Hwang and Lam, 1991; cited from earlier work
[5] = system: human vein endothelial cells (EC); assay: Pneumococcal adherence to human vein endothelial cell monolayers, resting or TNFα-stimulated; assay type: cell-based; details: for pneumococcal adherence to resting EC in presence of antagonist: 1 μM antagonist, without antagonist 240 ±15; for Number of pneumococci adherent to designated receptor on host cell: 2 mM sugar, adherence per 100 host cells without sugar minus with sugar
Protocol: as §1, §2, §3, §4

PAF receptor [6] = molecular target: T1, PAF receptor; assay: Pneumococcal adherence to U937 and COS-7 cells transfected with PAF receptor; assay type: cell-based; design: pneumococcal adherence; details: for pneumococcal adherence to PAF receptor-transfected cells: transfected COS-7 and U937 cells, antagonists 1 μM (FIG. 3); for adherence of R6 to U937 cells in presence of glycoconjugate: PAF receptor-transfected U937, input 10^7 cfu/ml, 296 ±30 without glycoconjugates
Protocol: FIG. 3. Effect on pneumococcal adherence to PAF receptors of receptor deglycosylation, the antagonists WEB 2086 and L659,989 (1 μM) and removal of phosphorylcholine from the pneumococcal cell wall (Tuomanen et al., 1985, J. Infect. Dis. 151: 859).
Recently, the PAF receptor was cloned from human leukocytes and successfully transfected into kidney epithelial cells (Kunz et al, supra). To determine if pneumococci could directly adhere to PAF receptors, human U937 cells (ATCC CRL1593; embryonic kidney epithelial cells stably transfected with the SV40 large T-antigen) and COS-7 cells (ATCC CRL 1651; monkey kidney) were transfected with the human PAF receptor cDNA (Gerard and Gerard, 1994, J. Immunol 152: 793) or the cDNA containing a Flag construct (Kunz et al., supra) by electroporation (Kunz et al., supra) or the addition of cationic liposomes (Gerard and Gerard, supra). […] Controls cells were transfected with vector alone. Monolayers of transfected and control cells were prepared in 60-well Terasaki dishes. Monolayers of COS-7 and U937 cells are prepared in 48-well culture dishes using the methods previously described for EC and LC (Geelen et al., 1993, Infect. Immun. 61: 1538).

[7] = monosaccharides 1-50 mM (FIG. 4)

CCCOc1c(OC)cc([C@@H]2CC[C@@H](c3cc(OC)c(OC)c(OC)c3)O2)cc1S(C)(=O)=O (relative stereo) [L659,989]
pneumococcal adherence to resting LC in presence of antagonist ([1]; resting LC): 272 ±8 bacteria | inhibition of PAF-mediated activation (PAF receptor [2]; L659,989 2 μg/ml, PAF 100 mM): almost completely inhibited | inhibition of pneumococcal-mediated activation (PAF receptor [2]; L659,989 2 μg/ml, pneumococci 10^8 bacteria/ml): almost completely inhibited | IC50 [3]: 50 nM | oral activity (PAF receptor [4]): orally active | pneumococcal adherence to resting EC in presence of antagonist ([5]; resting EC): 237 ±9 bacteria/EC | pneumococcal adherence to PAF receptor-transfected cells (PAF receptor [6]): inhibit pneumococcal adherence

O=C[C@@H](O)[C@@H](O)[C@H](O)[C@H](O)CO [D-mannose]
inhibition of adherence to resting cells by single sugars [3, 7]: effective in inhibiting adherence to resting cells

CC(=O)N[C@H]1C(O)O[C@H](CO)[C@H](O)[C@@H]1O (stereo partly drawn) [GalNAc, N-acetyl-D-galactosamine]
inhibition of adherence to resting cells by single sugars [3, 7]: effective in inhibiting adherence to resting cells

CC(=O)N[C@H]1C(O)O[C@H](CO)[C@@H](O)[C@@H]1O (stereo partly drawn) [GlcNAc, N-acetyl-D-glucosamine]
adherence of bacteria lacking choline to activated LC in presence of sugar ([1]; ethanolamine-grown pneumococci, activated LC, 135 ±13 without sugar): 137 ±7 /100 LC | inhibition of adherence to activated cells by single sugars ([3]; cytokine-stimulated EC and LC, monosaccharides 1-50 mM (FIG. 4)): became effective in activated cells | adherence of bacteria lacking choline to activated EC in presence of sugar ([5]; ethanolamine-grown pneumococci, activated EC): 121 ±11 /100 EC | decrease of pneumococcal adherence to transfected cells (PAF receptor [6]; transfected COS-7 and U937 cells (FIG. 3)): about 40%

CCCCCCCCCCCCCCCCOCC(COP(=O)([O-])OCC[N+](C)(C)C)OC(C)=O (centres unmarked) [PAF, platelet activating factor]
3H incorporation in IP3 (receptor activation) (PAF receptor [2]; PAF 100 mM, transfected COS-7 cells (FIG. 6)): significant ^3 H incorporation in IP3 | pneumococcal adherence to PAF receptor-transfected cells (PAF receptor [6]): inhibit pneumococcal adherence

Cc1nnc2n1-c1sc(CCC(=O)N3CCOCC3)cc1C(c1ccccc1Cl)=NC2 [WEB 2086]
pneumococcal adherence to resting LC in presence of antagonist ([1]; resting LC): 264 ±8 bacteria | IC50 [3]: 10 nM | pneumococcal adherence to resting EC in presence of antagonist ([5]; resting EC): 224 ±12 bacteria/EC | pneumococcal adherence to PAF receptor-transfected cells (PAF receptor [6]): inhibit pneumococcal adherence

TNFα
increase of pneumococcal adherence to EC by cytokine stimulation ([5]; TNFα 10 ng/ml, 3 h (FIG. 1)): ~ 70%

asialo-GM2
Number of pneumococci adherent to designated receptor on host cell ([1]; LC + IL-1α, control 355 ± 18): 205 ± 9 | Number of pneumococci adherent to designated receptor on host cell ([1]; resting LC, control 270 ± 15): 140 ± 10 | Number of pneumococci adherent to designated receptor on host cell ([5]; EC + TNFα, control 415 ± 25): 180 ± 13 | Number of pneumococci adherent to designated receptor on host cell ([5]; resting EC, control 240 ± 10): 140 ± 12 | adherence of R6 to U937 cells in presence of glycoconjugate (PAF receptor [6]): 327 ±39

globoside
Number of pneumococci adherent to designated receptor on host cell ([1]; LC + IL-1α, control 355 ± 18): 200 ± 11 | Number of pneumococci adherent to designated receptor on host cell ([1]; resting LC, control 270 ± 15): 140 ± 10 | Number of pneumococci adherent to designated receptor on host cell ([5]; EC + TNFα, control 415 ± 25): 200 ± 9 | Number of pneumococci adherent to designated receptor on host cell ([5]; resting EC, control 240 ± 10): 110 ± 8 | adherence of R6 to U937 cells in presence of glycoconjugate (PAF receptor [6]): 318 ±30

B1: IL-1: interleukin-1, cytokine used to stimulate cells (protein, UniProt P01583 113-271, looked up)
Interleukin-1 alpha: SAPFSFLSNVKYNFMRIIKYEFILNDALNQSIIRANDQYLTAAALHNLDEAVKFDMGAYKSSKDDAKITVILRISKTQLYVTAQDEDQPVLLKEMPEIPKTITGSETNLLFFWETHGTKNYFTSVAHPNLFIATKQDYWVCLAGGPPSITDFQILENQA
pneumococcal adherence to LC after cytokine stimulation ([1]; IL-1 stimulation, resting 270 ±15): 355 ±18 bacteria/100 LC | pneumococcal adherence to EC after cytokine stimulation ([5]; IL-1 stimulation, resting 240 ±10): 363 ±13 bacteria/100 EC
